Assay results from a melting point compilation (Tetko et al.; mined from patent text by program, amines drawn as free bases though some values may be those of a salt).

melting point | SMILES
79 to 82 °C | Cc1nc(-c2ccc(C(F)(F)F)cc2)sc1C(=O)N[C@H](C)[C@](O)(Cn1cncn1)c1ccc(F)cc1F
174 to 176 °C | Cc1c(Cl)cc(C(=O)C=[N+]=[N-])cc1S(N)(=O)=O
247 to 248 °C | Cc1cc(-c2ccc(-c3ccc(F)cc3)cc2)n[nH]c1=O
136 to 137 °C | CC(C)C(SC(=O)c1ccccc1)C(=O)NCC(=O)O (stereo unspecified)
240 to 241 °C | CCn1cc2c(n1)c(=O)[nH]c1cc(OCc3ccccc3)ccc12
178 to 181 °C | O=C(O)Cc1ccc2c(c1)Cc1ccccc1CC2=O
51 to 53 °C | COc1ccc(COCC(O)CO)cc1 (stereo unspecified)
62 to 65 °C | COc1ccc(CCCc2c[nH]c(C(=O)N3CCC[C@@H]3C(=O)N[C@H]3CC(=O)O[C@@H]3OCc3ccccc3)n2)cc1
173 to 175 °C | NC(=S)c1ncn(C2OC(COS(N)(=O)=O)C(O)C2O)n1 (stereo unspecified)
89 to 91 °C | COc1cc2c3c(c1)nc(SCc1ccc4ccccc4n1)n3CCC2
94.5 to 96.6 °C | Nc1c2c(cc3c1CCC3)CCC2
162 to 164 °C | O=C(c1ccc(F)cc1)N1CCC[C@H](c2nc(-c3ccc([N+](=O)[O-])cc3)no2)C1
129 °C | CC(=O)SCCNc1nc(-c2ccccc2)c2cc(Cl)ccc2n1
210 °C | O=C(Nc1ccc2ccc(-c3ccc(F)cc3)nc2n1)c1cccc(Br)c1
228 to 230 °C | COc1c(F)cc2c(c1F)CC(n1cc[nH]c1=S)CC2 (stereo unspecified)
151 to 152 °C | CCOC(=O)c1csc(-c2ccc3c(=O)n(CC(C)C)c(CNC(=O)OCC4c5ccccc5-c5ccccc54)c(-c4ccccc4)c3c2)n1
76 to 79 °C | COc1cc(CC(=O)NCCCc2ccc(C)c(C)c2)ccc1OCCNCCO
162 °C | O=c1nc(-c2cccc(Br)c2)sc2ccccc12
79.5 to 82 °C | Cc1cc(C)nc(NCCN(C(C)C)C(C)C)n1
229 to 230 °C | COC(=O)C1Cc2c([nH]c3ccccc23)C(C)N1C(=S)SC (stereo unspecified)
105 °C | CSCCn1nc(-c2ccc(OCCCC(F)(F)F)cc2)oc1=O
154 to 156 °C | CC(C)(C)OC(=O)NC1CCN(C(=O)[C@@]23C[C@@H](c4ccccc42)c2ccc(Cl)cc23)CC1
136 to 137 °C | COC1(c2cccc(OCc3ccc(-n4ccnc4C)cc3)c2)CCOCC1
119 to 120 °C | Cc1ccc(S(=O)(=O)OCC2(CO)OC(n3ccc(=O)[nH]c3=O)C(O)C2O)cc1 (stereo unspecified)

melting point | SMILES
150 to 152 °C | CCC(COC)Nc1nc(C)nc(N2CCc3cc(OC)cc(Cl)c32)c1I (stereo unspecified)
136 °C | N#CCCn1nc(-c2ccc(OCc3ccccc3)cc2)oc1=O
> 280 °C | CCn1c(=O)c2c(nc(C=Cc3ccc(C(=O)O)cc3OC)n2C)n(CC)c1=O
140 to 141 °C | CCN1CCCC1CNC(=O)c1cc(NS(N)(=O)=O)c(C)cc1OC (stereo unspecified)
146 to 148 °C | CN(CC(N)=O)S(=O)(=O)Cc1cccc(C(F)(F)F)c1
79.5 to 80 °C | C[C@H](CSC(=O)C1CCCCC1)C(=O)N1CSC[C@H]1C(=O)O
160 to 165 °C | CCCCc1nc(N)c(N)c(=O)[nH]1
138 °C | Cc1c(C(=O)N(C)N2CC=CCC2)nn(-c2ccc(Cl)cc2Cl)c1-c1ccc(Cl)cc1
89 to 91 °C | O=C(O)C(O)c1csc2ccccc12 (stereo unspecified)
145 to 147 °C | CCOC(=O)C1=C(C)NC(CS)=C(C(=O)OCC)C1c1cccc([N+](=O)[O-])c1 (stereo unspecified)
91 to 92 °C | Cc1ccc(Oc2ccc(-c3cccs3)cc2O)c(O)c1
128 to 130 °C | Cc1scnc1-c1cc(C(C)(C)C)c(O)c(C(C)(C)C)c1
199 to 201 °C | C[Si](C)(C)C(CN)CC(=O)O (stereo unspecified)
254 °C | CCCC1=NN(c2ccc(C(=O)O)cc2)C(=O)C1=CNc1ccccc1CC
109 to 111 °C | O=C(N[C@@H](Cc1ccc2ccccc2c1)C(=O)O)OCc1ccccc1
156 to 159 °C | O=C(Nc1ccccc1Sc1ccccc1-c1nnn[nH]1)c1ccc(OCCCCc2ccccc2)cc1
178 to 180 °C | CS(=O)(=O)c1ccc(-c2nn3c4c(oc3c2-c2ccc(F)cc2)CSCC4)cc1
128 °C | COc1ccc(-n2nnnc2CC(=O)C(F)(F)F)cc1C=O
143 to 145 °C | COC(=O)c1cc(Cl)cc(I)c1O
181 to 182 °C | COC(=O)Cc1cc([N+](=O)[O-])c(OC)c2c1N(C(C)=O)CC2
133 to 136 °C | Cn1nc(-c2c(Cl)cccc2Cl)nc1-c1cccnc1Cl
113 to 114 °C | COc1nc2ccc(Cl)cc2nc1Cl
208 to 209 °C | CNC(=O)n1ncc2ccc(NC(=O)/C=C/c3ccc(C(C)(C)C)cc3)cc21
149 to 150 °C | O=c1oc2ccc(Cc3ccccc3)cc2c(O)c1CCCOc1ccccc1

melting point | SMILES
70 to 72 °C | CCCc1ccc(-c2ncccc2S(=O)(=O)Nc2ncc(C)nc2OC)cc1
227 to 230 °C | CCc1cccc(CC)c1NC(=O)NC1(c2ccccc2)CCC1
186 °C | CCOC(=O)Cc1c(C(=O)OCC)[nH]c(C)c1-c1nc(-c2ccc(OC)cc2)c(-c2ccc(OC)cc2)[nH]1
84 to 86 °C | CCOC(=N)C1(O)CCCc2ccccc21 (stereo unspecified)
163 to 164 °C | CCCCc1nc(Cl)c(CO)n1Cc1ccc(-c2ccccc2-c2n[nH]c(=O)o2)cc1
122 °C | COc1ccc(C2CCCN2S(=O)(=O)c2ccc(C)cc2)cc1 (racemic)
110 °C | COc1cc2cc(C(=O)OCc3ccccc3)n(CC(=O)OC(C)(C)C)c2cn1
114 to 115 °C | C=CCn1nc(-c2ccc(O)cc2O)c2cccc(C(F)(F)F)c21
289 to 293 °C | O=C(O)c1cn(C2CC2)c2c(F)c(N3CCC3)c(F)cc2c1=O
239 to 241 °C | NC(=O)c1cc2c(Sc3ccc(Cl)cc3)cncc2s1
225 to 228 °C | Cc1nc(-n2ccc3cc(O)ccc3c2=O)sc1C(=O)NCc1ccccc1
116 to 118 °C | CCN[C@H]1CCC[C@H](Oc2ccc3[nH]ncc3c2)C1 (relative stereo)
266 °C | CCc1ccc2[nH]c3cnn(C)c3c(=O)c2c1
174 to 176 °C | CCc1ccc(Nc2nc3cc(NC(=O)c4ccccc4Nc4cccc(C(F)(F)F)c4)ccc3o2)cc1
152 to 153 °C | O=C(NCc1ccccc1)C1Cc2cc(Br)cc3[nH]c(=O)c(=O)n1c23 (stereo unspecified)
168 to 170 °C | COc1cc2c(c3ccccc13)Nc1ccccc1S2
80 to 82 °C | CC(C)(C)OC(=O)CC[C@H](NC(=O)c1ccc(NCc2ccccc2)c(F)c1)C(=O)OC(C)(C)C
110 to 112 °C | Nc1c(Cl)cc(CO)cc1Cl
208 to 209 °C | S=c1n(CNc2ccc(Br)cc2)nc(-c2ccncc2)n1-c1ccccc1
179 to 181 °C | CC1=Cc2cc(-c3nnn[nH]3)ccc2OC1(C)C
195 °C | COC(=O)C1=C(C)NC(C)=C(C(=O)n2ccnc2)C1c1cccc2nonc12 (stereo unspecified)
146 °C | N#CNC(=NCCc1ccccc1Cl)c1cncc(NCc2ccccc2)c1
160 to 162 °C | O=C(NCCCO)c1cc(Br)c(Br)[nH]1
150 to 152 °C | CCN1c2ncc(/C=C/c3ccncc3)cc2C(=O)N(C)c2ccc(Cl)nc21

melting point | SMILES
215 to 217 °C | COc1ccc2cc3ncc(C#N)c(Nc4ccc(Cl)cc4Cl)c3cc2c1
142 °C | CN(C(=O)CSc1nccc(-c2ccccn2)n1)c1ccc(Cl)cc1
172 to 175 °C | O=C(NC1CCCCC1)c1ccc(-c2ccc3nnn(Cc4ccc5ncccc5c4)c3n2)cc1F
137 to 138 °C | CC(C)Nc1nc2cc(Cl)c(Cl)cc2n1[C@H]1C[C@@H](CO)[C@H](O)[C@@H]1O
99 to 101 °C | COC(=O)c1ccc(OCc2ccc(Cl)cc2)cc1OCc1ccccc1
133 to 135 °C | COc1ccccc1-c1ccc(C(=O)N2Cc3ccc(C(=O)O)n3Cc3ccccc32)cc1C
74 to 75 °C | O=C(Nc1cccnc1)N1CCN(c2nc(-c3ccccc3)cs2)CC1
189 °C | N=C(NO)c1ccc(S(N)(=O)=O)s1
119 to 120 °C | Fc1ccccc1-c1nc2cccnc2o1
122 to 125 °C | CCOC(=O)Cc1c(C)n(Cc2ccccc2)c2ccc(O)cc12
98 to 100 °C | CCOC(=O)c1c(COC(C)=O)cccc1S(N)(=O)=O
100 to 101 °C | CCOCCOc1ccc(C(O)CNC(C)CCc2ccccc2)cc1C(=O)OC (stereo unspecified)
59 to 60 °C | C=Cc1ccc(C(=O)Oc2ccc(S(=O)(=O)Nc3ccccc3)cc2)cc1
97 °C | CCN1C[C@@H](C(=O)OC(C)(C)C)N(C(=O)OCc2ccccc2)C1=O
72 to 73 °C | CN(C)CCNC(=O)N1CCC(Oc2ccccc2)C1 (stereo unspecified)
150 to 180 °C | COc1ccc(-c2cc3ncnc(Nc4ccc5[nH]ccc5c4)c3s2)cc1
74 to 75 °C | CCC(=O)c1cc(CC)c(O)cc1O
114 to 116 °C | CCOC(=O)C(=O)Nc1cc(C#N)cc([N+](=O)[O-])c1
251 °C | Cc1cc(-c2cc(C(F)(F)F)n3ncc(C(=O)Nc4cccc(S(=O)(=O)N5CCOCC5)c4)c3n2)ccc1Cl
220 to 222 °C | O=c1c2ccccc2c(-c2ccccc2)c2n1CCCC2O (stereo unspecified)
144 to 148 °C | CC(C)c1cc(C(C)C)c(C=CC(=O)c2ccc(C(C)C)c(OS(N)(=O)=O)c2C(C)C)c(C(C)C)c1
207 to 208 °C | Cc1cccc2sc(=O)[nH]c12

SMILES | melting point
N#CC1=NC(Cl)(Cl)N=C1Cl | 114 to 115 °C
NC(=O)c1cn(Cc2ccccc2Cl)nn1 | 155 to 158 °C
Oc1cccc(C2CCCN(CCc3c[nH]c4ccccc34)C2)c1 (stereo unspecified) | 130 to 135 °C
CN1CCC[C@@H]1Cc1c(-c2ccccc2)[nH]c2ccccc12 | 132 °C
CCc1nn(C)c2c1C(c1ccccc1)=NCC(C(=NO)C(=O)OC)=N2 | 225 to 227 °C
CCC1(CCCCCC(=O)O)C(=O)NC(=O)NC1=O | 185 to 192 °C
C1=C(c2nc(-c3ccccc3)no2)CCN(Cc2c[nH]c3ncccc23)C1 | 207 to 209 °C
